Results on 2 compounds are retold here after paper PMC9323733, “Efficacy of Vafidemstat in Experimental Autoimmune Encephalomyelitis Highlights the KDM1A/RCOR1/HDAC Epigenetic Axis in Multiple Sclerosis” (Pharmaceutics, 2022).

The subject of series [1] is SH-SY5Y cells. Description: Human H3 acetylation assay (Western blot), cellular HDAC activity. The series is classed as cell-based. To be noted: 1 and 0.1 µM, 2 and 6 h. As to the method: Human H3 acetylation assays: for the determination of global and K9-specific acetylation levels, 500,000 SH-SY5Y cells were seeded in 6-well plates in DMEM/F12 1:1 (Sigma), supplemented with 2 mM glutamine (LabClinics) and 10% FBS (Sigma) and incubated at 37 °C and 5% CO2 in a humid atmosphere. […] After 2 and 6 h of treatment, cells were harvested and centrifuged at 250× g for 4 min at room temperature and cell pellets used for total histone extraction with EpiQuik Total Histone Extraction Kit (Epigentek, Farmingdale, NY, USA) following manufacturer’s instructions. 1 µg of histone extracts were run in MOPS buffer in 12% PAGE (Life Technologies, Carlsbad, CA, USA) and transferred with the iBlot system to nitrocellulose membranes. Transferred blots were stained with the Ponceau S solution (Sigma) and scanned with an Epson Perfection V600 Photo Scanner. Membranes were blocked in blocking buffer (5% skimmed milk in PBS-Tween 0.1%) for 1 h at room temperature, and after blocking blots were incubated with rabbit polyclonal anti-H3K9Ac (1:2000 dilution, Abcam, Cambridge, UK) and rabbit polyclonal anti-H3ac (K9 + K14 + K18 + K23 + K27) (1:2000 dilution, Abcam) overnight at 4 °C in ablocking buffer. […]

Series [2] in a line: Drug exposure in male and female animals. The series is classed as in vivo. To be noted: mice and rats. An excerpt:
Sex and Gender in this Research
Multiple sclerosis (MS) is more prevalent in women than men, but male patients develop more severe clinical symptoms and deteriorate faster than female patients. With respect to the animal models for MS used in this research, t he following aspects were considered: […]
and rats, which were not deemed relevant for this research. Previous efficacy studies in the […]
animals usedand perfo rm separate studies for male an female mice in MS models.
MOG35-55 induced EAE in C57BL/6 mice:
No differences have been observed in disease incidence or severity between sexes in MOG35-55 induced EAE in C57BL/6 mice in a study by Papenfuss et al. (J Neuroimmunol, 2004;150(1-2):59-69, therefore it was not deemed justified to increase the number of animals used in the studies to study males and females independently in the experiments reported in this […]
Although a higher incidence and severity has been reported for male than female SJL mice in the TMEV model (Alley et al. Exp Neurol, 2003 Mar;180(1):14-24), females are used in mo st studies because the strain of SJL male mice are very aggressive and display a high level of dominance and inflict wounds to their housemates. […]
Hypothetical sexual dimorphism in spinal cord organotypic cultures and chr onic excitotoxicity treatment derived from 8 day old Sprague-Dawley male or female pups was not assessed. […]

The test system of series [3] is lymphocytes. Description: GLP toxicological studies, lymphocyte count, rats. Format: in vivo, Wistar rats. Particulars: mean ± SD. From the text:
T r eat m e nt N Ly m p h o c y te s Equivalent m ou se d o se
( mg /k g p. o. ga va g e) (109/ L ) ( mg /k g p.o ga va ge)
6 m ont h s W i sta r r at s
9 m ont h s Be ag le d og s
Eff ec t of t r ea t me nt wi t h O RY-2 00 1 a d mi ni st e r e d by or al ga va ge o n l y m ph oc yt e s ob se r ve d i n G LP
t ox i c ol ogi c a l st udi e s i n r at a nd do g. A ni ma l s we r e t re a t e d or al l y (fi ve c o ns e c ut i ve da ys/ we e k) by ga va ge
28 da ys or 6 mo nt hs ( ra t s) a nd 28 da ys or 9 mo nt hs (dogs). Data re prese nt de me a n ± S D. T he e q ui va l e n t
dos e i n m o use i s i n di c at e d. 1-wa y A N OV A a n d D u n ne t t’ s M ul ti pl e C o m pa ri so n t e st wa s use d.

Series [4] addresses T1, human S1P1 receptor (Homo sapiens, UniProt P21453).
T1 construct: host or cells: CHO cells
Description: CellKey impedance assay in CHO cells, agonistic and antagonistic effect. Format: cell-based. To be noted: GPCR based impedance assays. As to the method:
Cell on impedance modulation, using the CellKey (Cellular Dielectric Spectroscopy) detection method (CellKey 96, MDS Sciex, Concord, ON, Canada) at Eurofins Pharma Discovery Services (Celle-Lévescault, France). CHO cells were seeded onto a 96-well plate at 15.104 cells/well in HBSS buffer (Invitrogen), 20 mM HEPES (Invitrogen), 10% FCS (Invitrogen), and 0.1% BSA (Sigma), allowed to equilibrate for 60 min at 28 °C. DMSO solutions of compounds were diluted in HBSS and 0.1% BSA. Plates were placed onto the system, and measurements were made at a temperature of 28 °C. To measure the agonistic effect, compounds and controls in duplicate were added simultaneously to all of the wells using an integrated fluidics system. Impedance measurements were monitored for 10 min after ligand addition. […] To measure the antagonistic effect, compounds and controls in duplicate were pre-incubated for 15 min before the addition of the reference agonist S1P at 0.01 µM (EC80). Impedance measurements were monitored for 10 min.
Evaluation of the agonistic (a) and antagonist (b) effect of the compounds on the human S1P1 receptor. […] Data are expressed as percentage of control (no compound) activity, n = 2. TSA was used as a control; (d) Cellular HDAC activity assay. […] SAHA was used as a control. Ponceau S staining was used as loading control. Veh: Vehicle. […] TSA: Trichostatin A. SAHA: suberoylanilide hydroxamic acid.

SMILES strings stand for the structures.

T1 sequence (P21453 whole entry): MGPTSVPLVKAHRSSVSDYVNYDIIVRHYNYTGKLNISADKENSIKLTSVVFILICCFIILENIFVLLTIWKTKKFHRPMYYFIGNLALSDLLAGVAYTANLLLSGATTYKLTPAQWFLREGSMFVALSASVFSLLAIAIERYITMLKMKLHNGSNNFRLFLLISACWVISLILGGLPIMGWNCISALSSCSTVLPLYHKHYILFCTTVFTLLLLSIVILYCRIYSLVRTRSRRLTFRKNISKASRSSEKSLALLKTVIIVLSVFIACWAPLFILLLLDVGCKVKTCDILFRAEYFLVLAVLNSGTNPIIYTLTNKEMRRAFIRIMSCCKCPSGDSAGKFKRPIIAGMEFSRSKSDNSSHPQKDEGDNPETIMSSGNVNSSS

As to `CCCCCCCCc1ccc(CCC(N)(CO)CO)cc1` [FTY720, Fingolimod, reference compound], the “impact on cellular HDAC activity (acetylated H3 or H3K9 levels)” value in series [1] is listed as “unable to confirm the previous studies reporting that FTY720 or FTY720-P had any significant impact”.

Take `Nc1nnc(CN[C@@H]2C[C@H]2c2ccc(OCc3ccccc3)cc2)o1` [ORY-2001]: in series [2], the “difference of exposure between male and female animals” value is “Minor differences”. Also, the Lymphocytes in series [3] (6 months Wistar rats, 0.07 mg/kg p.o. gavage (equivalent mouse dose 0.14)) is listed as 3.25 ± 0.75 109/L; in series [3] (6 months Wistar rats, 0.20 mg/kg p.o. gavage (equivalent mouse dose 0.40)), 4.02 ± 0.99 109/L; in series [3] (6 months Wistar rats, 0.40 mg/kg p.o. gavage (equivalent mouse dose 0.80)), 3.72 ± 1.12 109/L; in series [3] (28 d Wistar rats, 0.07 mg/kg p.o. gavage (equivalent mouse dose 0.14)), 3.65 ± 1.39 109/L; in series [3] (28 d Wistar rats, 0.20 mg/kg p.o. gavage (equivalent mouse dose 0.40)), 3.44 ± 0.62 109/L; in series [3] (28 d Wistar rats, 0.60 mg/kg p.o. gavage (equivalent mouse dose 1.20)), 3.89 ± 1.14 109/L. Further, the “agonist and antagonist activity at S1P1 receptor” value in series [4] is “neither ORY-2001 nor ORY-LSD1 (at concentrations well above those needed to fully inhibit KDM1A) showed any activity”; in series [4] (listed as vafidemstat) it was “does not target the S1PR”.
